Source: paper PMC12458691 (Inorganic Chemistry, 2025)
Where two headings read alike, the source gives them in different places. Marks after values point to notes of the source that are not given here.

Key:
[1] = Protonation constants by potentiometric and UV–vis titrations; assay type: physicochemical
Procedure: (§1) Caution! Perchlorate salts are explosive and should be handled with care; such compounds should never be heated as solids. The potentiometric titrations were carried out at 298.1 ± 0.1 K using 0.15 M NaClO4 as the supporting electrolyte. The experimental procedure (buret, potentiometer, cell, stirrer, microcomputer, etc.) has been fully described elsewhere. The acquisition of raw potentiometric data was performed with the computer program PASAT. The reference electrode was a Ag/AgCl electrode in a saturated KCl solution. The glass electrode was calibrated as a hydrogen-ion concentration probe by titration of previously standardized amounts of HCl with CO2-free NaOH solutions, and the equivalent point was determined by Gran’s method, , which gives the standard potential, E̊, and the ionic product of water (pK w = 13.73(1)). The computer program […] was used to calculate the protonation and stability constants. The HYSS program was used to obtain the distribution diagrams. The pH range investigated by using this technique was 2.5–11.0, in accordance with the linear response range of glass electrodes. The solutions were extensively deaerated with an argon flow before the potentiometric runs. A moderate argon flow was maintained throughout the course of the titrations. The different titration curves for each system (at least two) were treated either as a single set or as separate curves without significant variations in the values of the stability constants. Finally, the sets of data were merged and treated simultaneously to give the final stability constants.
The solvents used were of spectroscopic or equivalent grade. Water was twice distilled and passed through a Millipore apparatus. The pH values were measured with a Metrohm 713 pH meter, and adjustments of the hydrogen-ion concentration of the solutions were made with diluted HCl and NaOH solutions. UV–vis absorption spectra were recorded between pH 2 and 11 with an Agilent 8453 spectrometer. The resulting data from the titrations were used to calculate the third protonation constant of ^ COOMe PyNMe 3 . For this, the HypSpec program was employed, considering all of the absorbance intensities in the range of 250 and 350 nm.

[2] = Stability constants and speciation of Cu2+ complexes by potentiometric measurements; assay type: physicochemical; details: for pCu: calculated for theoretical solutions
Procedure: as §1

[3] = Stability constants and speciation of Fe2+ complexes by potentiometric measurements; assay type: physicochemical; details: for pFe: calculated for theoretical solutions
Procedure: as §1

[4] = McCord–Fridovich nitroblue tetrazolium (NBT) SOD activity assay; assay type: biochemical
Text: First, the SOD activity of the complexes was studied by means of the nitroblue tetrazolium (NBT) method, also known as McCord–Fridovich method. This is a widely used, indirect method based on the side production of superoxide anions by the xanthine oxidase enzyme and their capture by the NBT dye to give formazan. − A compound displaying SOD activity decreases the flow of superoxide radical anions and, thereby, the production of formazan (see the representation of the fitting of the data in Figures and S13–S16). Thus, by following the absorption band of formazan at 560 nm, the SOD activity of the studied mimetic can be quantified. Blank experiments were recorded with the ligands alone without observing any effect. The values of IC50, defined as the amount of the compound necessary for achieving 50% inhibition of NBT reduction to formazan by the superoxide anion, together with the catalytic constants (k cat), were obtained as indicated in the Experimental Section and are summarized in Table .
The SOD-like activity was determined by using the nitroblue tetrazolium (NBT) method, which despite its limitations is frequently used to estimate the activity of SOD mimetics. − The assays were carried out in a pH = 7.4 50 mM HEPES buffer at 298 K. The xanthine (2.2 × 10^–4 M) and xanthine oxidase (ca. 3 UN) system was used to generate a reproducible and constant flux of superoxide anions. […] Data in the absence of the complex were used as a reference. […] The percentage of inhibition of the NBT reduction to formazan was used as a measure of the SOD activity of the compounds. The concentration of the complex required to yield 50% inhibition of NBT reduction (IC50) was determined from a plot of percentage inhibition versus complex concentration. The IC50 data were calculated from the mean values of (at least) three independent measurements. The catalytic constant was calculated from the IC50 using the equation k cat = k NBT[NBT]/IC50 where k NBT = (5.94 ± 0.5) × 10^4 M^–1 s^–1. −

[5] = Table S2, 0.15 M NaClO4, 298.1 K, ref 1 of the SI, cited from earlier work
[6] = Table S3, 0.15 M NaClO4, 298.1 K; ref 1 of the SI; cited from earlier work
[7] = parameters: method as in earlier work; details: Table S3, 0.15 M NaClO4, 298.1 K; ref 1 of the SI; cited from earlier work
[8] = parameters: method as in footnotes c–f, numbers not given; details: Cu2+ complexes/salt/enzyme, literature data for comparison; ref footnotes c–f, numbers not given; cited from earlier work
[9] = parameters: method as in number not given; details: Mn2+ complexes of the ligands, recently reported; ref number not given; cited from earlier work
[10] = 0.15 M NaClO4, 298.1 K, potentiometry

SMILES	log K, H + HL ⇄ H2L (stepwise protonation constant) ([5]; potentiometry)	log K, H + L ⇄ HL (stepwise protonation constant) ([5]; potentiometry)	log β (∑log K, protonation) [5]	log K, [CuL(OH)]+ + H2O ⇄ [CuL(OH)2] + H+ [6]	log K, [CuL]2+ + H2O ⇄ [CuL(OH)]+ + H+ [6]	log K, Fe2+ + L ⇄ [FeL]2+ (stability constant) [7]	log K, [FeL]2+ + H2O ⇄ [FeL(OH)] + H+ [7]	k cat (SOD catalytic constant) [8]	TON of catalase activity of the Mn2+ complexes [9]	other results
COC(=O)c1cc2nc(c1)CN(C)CCN(C)CCN(C)C2 [^ COOMe PyNMe 3]	–	–	–	–	–	–	–	–	–	log K, H2L^(2+x)++H^+⇄H3L^(3+x)+ (stepwise protonation constant) ([1]; 0.15 M NaClO4, 298.1 K, obtained by UV–vis spectroscopic titration): 2.48(1) ^f; log K, HL^(1+x)++H^+⇄H2L^(2+x)+ (stepwise protonation constant) [1, 10]: 7.03(1); log K, L^x+H^+⇄HL^(1+x)+ (stepwise protonation constant) [1, 10]: 10.57(2); three protonation constants, span from first to third ([1]; potentiometric titrations (third constant of COOMePyNMe3 by UV)): 10.57 to 2.48 logarithmic units; log K, Cu+L⇄[CuL] (stability constant) ([2]; 0.15 M NaClO4, 298.1 K): 16.84(3); log K, [CuL]+H2O⇄[CuL(OH)]+H ([2]; 0.15 M NaClO4, 298.1 K): –8.26(4); pCu ([2]; pH 7.4, [L]=[M]=1 µM): 9.79; pCu ([2]; pH 7.4, [L]=[M]=10 µM): 9.29; log K, Fe+L⇄[FeL] (stability constant) ([3]; 0.15 M NaClO4, 298.1 K): 9.46(2); log K, [FeL]+H2O⇄[FeL(OH)]+H ([3]; 0.15 M NaClO4, 298.1 K): –8.18(5); pFe ([3]; pH 7.4, [L]=[M]=1 µM): 6.27; pFe ([3]; pH 7.4, [L]=[M]=10 µM): 5.66; SOD activity of the Fe2+ complexes (in words) ([4]; NBT method, under the conditions of this study): negligible SOD activity; k cat (SOD catalytic constant) ([4]; metal complexes, calculated from IC50 as kNBT[NBT]/IC50, pH 7.4, [NBT] = 59 μM): 40.3 10^6 M^–1 s^–1; increase in the SOD catalytic constant of the Cu2+ complex on functionalization of the pyridine ([4]; relative to Cu2+ complexes of HPyNH3 or HPyNMe3): 34 fold
c1cc2nc(c1)CNCCNCCNC2 [^ H PyNH 3]	7.96(1)	10.54(1)	20.40	-10.7(1)	-8.68(8)	12.68(2)	-6.94(5)	1.7 10^6 M^–1 s^–1	25–37	log K, H + H2L ⇄ H3L (stepwise protonation constant) ([5]; potentiometry): 1.90(1)
CN1CCN(C)Cc2cccc(n2)CN(C)CC1 [^ H PyNMe 3]	7.37(1)	10.88(1)	18.25	-11.31(8)	-8.53(4)	9.72(2)	-9.08(4)	1.2 10^6 M^–1 s^–1	–	log K, [FeL(OH)]+ + H2O ⇄ [FeL(OH)2] + H+ [7]: -10.58(5)
COc1cc2nc(c1)CNCCNCCNC2 [^ MeO PyNH 3]	–	–	–	–	–	–	–	–	25–37	–
Oc1cc2nc(c1)CNCCNCCNC2 [^ OH PyNH 3]	–	–	–	–	–	–	–	–	25–37	–
